Assay results: patent publication US9844536B2, “3-(1H-imidazo[4,5-C]pyridin-2-yl)-1H-pyrazolo[3,4-C]pyridine and therapeutic uses thereof” (Samumed, LLC, priority 2014, dated 2017)

Tests used:
Format in all cases: cell-based
LL29 cells = assay: Inhibition of the fibrotic process (αSMA staining) in TGF-β1 treated primary human fibroblasts from IPF patients; conditions: Fibroblast, 96 h, TGF-β1 20 ng/mL, 4 days, dose-response 10 μM to 1.87 nM, read-out: Inhibition of fibrosis EC50
In short: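 LL29 IPF lung fibroblasts in 1% FBS were stimulated with TGF-β1 (20 ng/mL) and treated 4 days at 37 °C with compound (11 points, 10 μM–1.87 nM, 0.1% DMSO). The % αSMA-positive cells, imaged after excluding SYTOX-positive dead cells, was normalized to TGF-β1/DMSO wells. EC50 came from nonlinear regression over triplicates.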

[1] = system: primary human mesenchymal stem cells (hMSCs); assay: Chondrogenesis induction screen in primary human mesenchymal stem cells (nodules, Rhodamine B/Nile Red); conditions: 144 h, 6 days; for EC (100% TGF-beta3 activity): concentration required to induce chondrogenesis equivalent to TGF-β3 (10 ng/mL), read-out: Conc (nM) of 100% TGF-β3 activity; for Emax: relative to TGF-β3 (10 ng/mL) positive control, read-out: Max. Activity as % TGF-β3 activity
Method: The above synthesized compounds were screened using primary human mesenchymal stem cells (hMSCs) to determine their ability to induce chondrogenesis (process by which cartilage is developed).
Primary human mesenchymal stem cells (hMSCs) were purchased from Lonza (Walkersville, Md.) and expanded in Mesenchymal Stem Cell Growth Media (Lonza). Cells between passage 3 and 6 were used for the experiments.
Each compound was dissolved in DMSO as a 10 mM stock and used to prepare compound source plates. Serial dilution (1:3, 6-point dose-response curves from 2700 nM to 10 nM) and compound transfer was performed using the ECHO 550 (Labcyte, Sunnyvale, Calif.) into 96-well clear bottom assay plates (Greiner Bio-One) with appropriate DMSO backfill for a final DMSO concentration of 0.03%. hMSCs were plated at 20,000 cells/well in 250 μL/well Incomplete Chondrogenic Induction Medium (Lonza; DMEM, dexamethasone, ascorbate, insulin-transferrin-selenium [ITS supplement], gentamycin-amphotericin [GA-1000], sodium pyruvate, proline and L-glutamine). TGF-β3 (10 ng/mL) was used as a positive control for differentiation while negative control wells were treated with 75 nL DMSO for normalization and calculating EC50 values. Cells were incubated at 37° C. and 5% CO2 for 6 days. To image chondrogenic nodules, the cells were fixed using 4% formaldehyde (Electron Microscopy Sciences), and stained with 2 μg/mL Rhodamine B (Sigma-Aldrich) and 20 μM Nile Red (Sigma-Aldrich) [Johnson K., et. al, A Stem Cell-Based Approach to Cartilage Repair, Science, (2012), 336(6082), 717-721]. The nodules imaged (4 images per well at 4× magnification) by excitation at 531 nm and emission at 625 nm and quantified using the CellInsight CX5 (Thermo Scientific). Number of nodules in each well was normalized to the average of 3 DMSO treated wells on the same plate using Excel (Microsoft Inc.). The normalized averages (fold change over DMSO) of 3 replicate wells for each compound concentration were calculated. Due to solubility limitations of some of the compounds, curve fitting was incomplete leading to inaccurate EC50 determinations.
Using TGF-03 as a positive control, the concentration of test compounds required to induce equivalent levels of chondrogenesis is reported. In addition, the maximum activity of each compound and the respective dose that each compound reached maximum chondrogenesis activity is reported.

[2] = system: Wnt pathway (Sp5-Luc reporter, SW480 cells); assay: Sp5-Luc reporter gene screening assay for Wnt activity in SW480 colon carcinoma cells; conditions: Homo sapiens
In short: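 IC50 values come from variable-slope four-parameter fits of luciferase signal normalized to DMSO wells. Stable Sp5-Luc reporter SW480 colon carcinoma cells were exposed to compounds in a 3-fold dilution series (source plates from 10 mM stock) for forty-two hours at 37 °C.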

ARPE-19 cells = assay: Transdifferentiation of ARPE-19 cells into eye neuronal cells [photoreceptors], PAX6 staining; conditions: Homo sapiens, fixed at 40 hours, PAX6 antibody staining, normalized to DMSO
Method: The above synthesized compounds were screened using ARPE-19 cells [a spontaneously arising retinal pigment epithelia (RPE) cell line] to determine their ability to transdifferentiate ARPE-19 into eye neuronal cells [photoreceptors].
ARPE-19 cells are cultured in standard culture medium containing Dulbecco's Modified Eagle's Medium and Ham's F12 Nutrient Mixture (DMEM/F12) mix (1:1)+GlutaMax with 1% penicillin-Streptomycin and 10% FBS (Fetal Bovine Serum). Cells are incubated at 37° C. with 5% CO2. Cells are trypsinized and plated onto 384-well pre-spotted plate at a density of 3000 cells/well in 50 uL of media. Plating media: DMEM/F12 (1:1)+3% charcoal filtered-FBS+GlutaMax+1% pen/Strep. Cells are incubated at 37° C. with 5% CO2. At 40 hours, cells were fixed for 15 min with 10% Buffered Formalin. Cells were then washed 3 times with PBS for 5 min each, permeablize using 0.3% Triton X-100 in 1×PBS for 30 min, block for 1 hr with 2% BSA in 1×PBS with 0.1% Triton X-100. The primary antibody (1:100 PAX6 Santa Cruz Biotech; sc-81649) was diluted and 10 μL/well was added to the cells. The cells were incubated overnight at 4° C. […] Readings were normalized to DMSO only treated cells, and normalized activities were utilized for EC50 calculations using the dose-response log (activator) vs. response-variable slope (four parameters) nonlinear regression feature available in GraphPad Prism 5.0 or 6.0.

SMILES | IC50 [2] | EC50 (LL29 cells) | EC (100% TGF-beta3 activity) [1] | Emax [1] | EC50 (ARPE-19 cells)
Nc1cncc(-c2cc3c(-c4nc5c(-c6ccccc6F)nccc5[nH]4)n[nH]c3cn2)c1 [Compound 55, 5-(3-(4-(2-Fluorophenyl)-1H-imidazo[4,5-c]pyridin-2-yl)-1H-pyrazolo[3,4-c]pyridin-5-yl)pyridin-3-amine] | 16.6 nM | ≤ 9 nM | 145 nM | – | –
FC1(F)CCN(Cc2cncc(-c3cc4c(-c5nc6c(N7CCCCC7)nccc6[nH]5)n[nH]c4cn3)c2)C1 [Compound 181, 5-(5-((3,3-Difluoropyrrolidin-1-yl)methyl)pyridin-3-yl)-3-(4-(piperidin-1-yl)-1H-imidazo[4,5-c]pyridin-2-yl)-1H-pyrazolo[3,4-c]pyridine] | 61.6 nM | 140 nM | 68.1 nM | – | –
CCNCc1cncc(-c2cc3c(-c4nc5c(-c6ccsc6)nccc5[nH]4)n[nH]c3cn2)c1 [Compound 266, N-((5-(3-(4-(Thiophen-3-yl)-1H-imidazo[4,5-c]pyridin-2-yl)-1H-pyrazolo[3,4-c]pyridin-5-yl)pyridin-3-yl)methyl)ethanamine] | 11.3 nM | ≤ 9 nM | 67.7 nM | 30% | –
CC(C)Nc1cncc(-c2cc3c(-c4nc5c(-c6ccoc6)nccc5[nH]4)n[nH]c3cn2)c1 [Compound 298, 5-(3-(4-(Furan-3-yl)-1H-imidazo[4,5-c]pyridin-2-yl)-1H-pyrazolo[3,4-c]pyridin-5-yl)-N-isopropylpyridin-3-amine] | 15 nM | 65 nM | 219 nM | 300% | –
O=C(Nc1cncc(-c2cc3c(-c4nc5c(-c6cccs6)nccc5[nH]4)n[nH]c3cn2)c1)C1CC1 [Compound 331, N-(5-(3-(4-(Thiophen-2-yl)-1H-imidazo[4,5-c]pyridin-2-yl)-1H-pyrazolo[3,4-c]pyridin-5-yl)pyridin-3-yl)cyclopropanecarboxamide] | 16.4 nM | ≤ 9 nM | 68.4 nM | – | –
CC(C)(C)C(=O)Nc1cncc(-c2cc3c(-c4nc5c(-c6ccc(F)s6)nccc5[nH]4)n[nH]c3cn2)c1 [Compound 346, N-(5-(3-(4-(5-Fluorothiophen-2-yl)-1H-imidazo[4,5-c]pyridin-2-yl)-1H-pyrazolo[3,4-c]pyridin-5-yl)pyridin-3-yl)pivalamide] | 12.6 nM | ≤ 9 nM | 40.9 nM | – | –
Cc1ccc(-c2nccc3[nH]c(-c4n[nH]c5cnc(-c6cncc(N)c6)cc45)nc23)s1 [Compound 367, 5-(3-(4-(5-Methylthiophen-2-yl)-1H-imidazo[4,5-c]pyridin-2-yl)-1H-pyrazolo[3,4-c]pyridin-5-yl)pyridin-3-amine] | 2.1 nM | ≤ 9 nM | 259 nM | 10% | –
CC(=O)c1ccc(-c2nccc3[nH]c(-c4n[nH]c5cnc(-c6cccnc6)cc45)nc23)s1 [Compound 394, 1-(5-(2-(5-(Pyridin-3-yl)-1H-pyrazolo[3,4-c]pyridin-3-yl)-1H-imidazo[4,5-c]pyridin-4-yl)thiophen-2-yl)ethan-1-one] | 5.5 nM | 14 nM | 142 nM | 10% | –

Second part, led by results:

IC50 [2] | SMILES | EC50 (LL29 cells) | EC (100% TGF-beta3 activity) [1] | Emax [1] | EC50 (ARPE-19 cells)
9.9 nM | Cc1ccncc1-c1cc2c(-c3nc4c(-c5cc(F)cc(CNS(C)(=O)=O)c5)nccc4[nH]3)n[nH]c2cn1 [Compound 421, N-(3-Fluoro-5-(2-(5-(4-methylpyridin-3-yl)-1H-pyrazolo[3,4-c]pyridin-3-yl)-1H-imidazo[4,5-c]pyridin-4-yl)benzyl)methanesulfonamide] | > 10000 nM | 122 nM | 10% | –
10 nM | Cn1cc(-c2cc3c(-c4nc5c(-c6cccc(F)c6)nccc5[nH]4)n[nH]c3cn2)cn1 [Compound 940, 3-(4-(3-Fluorophenyl)-1H-imidazo[4,5-c]pyridin-2-yl)-5-(1-methyl-1H-pyrazol-4-yl)-1H-pyrazolo[3,4-c]pyridine] | ≤ 9 nM | 110 nM | 100% | –
46 nM | NC1CN(c2cncc(-c3cc4c(-c5nc6c(-c7cccc(F)c7)nccc6[nH]5)n[nH]c4cn3)n2)C1 [Compound 942, 1-(6-(3-(4-(3-Fluorophenyl)-1H-imidazo[4,5-c]pyridin-2-yl)-1H-pyrazolo[3,4-c]pyridin-5-yl)pyrazin-2-yl)azetidin-3-amine] | 303 nM | – | – | 5 nM
99 nM | CN(C)CCOc1cncc(-c2cc3c(-c4nc5c(-c6cccc(F)c6)nccc5[nH]4)n[nH]c3cn2)c1 [Compound 947, 2-((5-(3-(4-(3-Fluorophenyl)-1H-imidazo[4,5-c]pyridin-2-yl)-1H-pyrazolo [3,4-c]pyridin-5-yl)pyridin-3-yl)oxy)-N,N-dimethylethan-1-amine] | 484 nM | – | – | 35 nM
10 nM | COc1cncc(-c2cc3c(-c4nc5c(-c6cccc(F)c6)nccc5[nH]4)n[nH]c3cn2)c1 [Compound 948, 3-(4-(3-Fluorophenyl)-1H-imidazo[4,5-c]pyridin-2-yl)-5-(5-methoxypyridin-3-yl)-1H-pyrazolo[3,4-c]pyridine] | ≤ 9 nM | 174 nM | 900% | –
